Read-outs that look alike come from different tables or passages of the source.
How the values were obtained:
GCase = details: cited from earlier work
[1] = target: T1, recombinant human lysosomal β-glucocerebrosidase (GCase, GH30) (Homo sapiens, UniProt P04062); test: Ki determination, GCase (β-glucocerebrosidase); type: biochemical
T1 sequence (P04062 40-536): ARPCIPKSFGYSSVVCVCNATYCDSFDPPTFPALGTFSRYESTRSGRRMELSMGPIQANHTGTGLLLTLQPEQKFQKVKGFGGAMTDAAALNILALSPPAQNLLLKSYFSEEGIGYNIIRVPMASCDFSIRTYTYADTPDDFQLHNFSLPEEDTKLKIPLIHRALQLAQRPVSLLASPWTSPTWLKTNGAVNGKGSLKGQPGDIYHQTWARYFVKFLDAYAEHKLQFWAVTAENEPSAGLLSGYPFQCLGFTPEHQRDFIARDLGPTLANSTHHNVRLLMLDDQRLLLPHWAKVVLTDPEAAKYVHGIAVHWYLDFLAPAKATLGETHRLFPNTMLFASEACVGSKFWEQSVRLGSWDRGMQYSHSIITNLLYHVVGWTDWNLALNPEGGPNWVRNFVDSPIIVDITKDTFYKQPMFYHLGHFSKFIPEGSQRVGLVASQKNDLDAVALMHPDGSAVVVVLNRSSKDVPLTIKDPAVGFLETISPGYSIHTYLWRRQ
Method: (§1) Kinetic studies were performed at room temperature in an appropriate buffer for each enzyme (specific conditions can be found below). All the reactions were performed in half-area 96-well-plates (Corning, Corning, NY, USA) and monitored with a Synergy H1 plate reader (BioTek Instruments, Winooski, VT, USA). In each experiment, the appropriate concentration of the enzyme was incubated with different concentrations of the inhibitors for 2–5 min before initiating the reaction by the addition of substrate. The initial rate was then measured by monitoring the increase in absorbance as a result of the release of 4-nitrophenol at 405 nm for up to five minutes. Ki determinations were performed using two different substrate concentrations. For each substrate concentration, a range of three to six inhibitor concentrations was used. Dixon plots (1/v vs. [I]) were constructed to validate the use of competitive inhibition model and to assess the fit of the data. The data were then fit to a competitive inhibition model using non-linear regression analysis with Grafit 7.0.3 (Erithacus Software, East Grinstead, UK).
GCase (β-glucocerebrosidase): 20 mM sodium citrate, 50 mM sodium phosphate, 1.0 mM tetrasodium EDTA, 0.25% v/v Triton X-100® and 0.25% w/v taurocholic acid buffer (pH 7). Substrate: 2,4-DNP β-Glc, Km = 2.7 mM.

[2] = target: T2, β-glucosidase/β-galactosidase from Agrobacterium sp. (Abg, GH1) (Agrobacterium sp., UniProt P12614); test: Ki determination, Agrobacterium sp. β-glucosidase (Abg); type: biochemical; details: pH 7, substrate pNP β-Gal, room temperature; read-out: Ki Abg (GH1) β-Glc/Gal
T2 sequence (P12614 1-459): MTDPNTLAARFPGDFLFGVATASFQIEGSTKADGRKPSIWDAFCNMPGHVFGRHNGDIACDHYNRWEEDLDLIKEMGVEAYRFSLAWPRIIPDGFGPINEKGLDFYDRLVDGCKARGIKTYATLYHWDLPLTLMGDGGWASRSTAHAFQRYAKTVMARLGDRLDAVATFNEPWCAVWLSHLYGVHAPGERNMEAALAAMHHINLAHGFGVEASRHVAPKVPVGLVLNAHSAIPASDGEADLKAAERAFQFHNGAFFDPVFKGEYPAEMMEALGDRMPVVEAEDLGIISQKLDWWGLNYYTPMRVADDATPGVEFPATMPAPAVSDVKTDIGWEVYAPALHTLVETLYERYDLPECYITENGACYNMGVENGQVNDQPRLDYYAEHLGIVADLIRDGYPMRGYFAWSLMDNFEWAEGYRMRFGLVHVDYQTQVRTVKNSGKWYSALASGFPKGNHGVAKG
Method: as §1
Agrobacterium sp. β-glucosidase (Abg): [64, 65] 50 mM sodium phosphate buffer (pH 7).

[3] = target: lac Z β-galactosidase from E. coli (GH2) (Escherichia coli, UniProt P00722); test: Ki determination, E. coli lac Z β-galactosidase; type: biochemical; details: pH 7, substrate pNP β-Gal, room temperature
Chain of lac Z β-galactosidase from E. coli (GH2) (P00722 2-1024 limits assumed): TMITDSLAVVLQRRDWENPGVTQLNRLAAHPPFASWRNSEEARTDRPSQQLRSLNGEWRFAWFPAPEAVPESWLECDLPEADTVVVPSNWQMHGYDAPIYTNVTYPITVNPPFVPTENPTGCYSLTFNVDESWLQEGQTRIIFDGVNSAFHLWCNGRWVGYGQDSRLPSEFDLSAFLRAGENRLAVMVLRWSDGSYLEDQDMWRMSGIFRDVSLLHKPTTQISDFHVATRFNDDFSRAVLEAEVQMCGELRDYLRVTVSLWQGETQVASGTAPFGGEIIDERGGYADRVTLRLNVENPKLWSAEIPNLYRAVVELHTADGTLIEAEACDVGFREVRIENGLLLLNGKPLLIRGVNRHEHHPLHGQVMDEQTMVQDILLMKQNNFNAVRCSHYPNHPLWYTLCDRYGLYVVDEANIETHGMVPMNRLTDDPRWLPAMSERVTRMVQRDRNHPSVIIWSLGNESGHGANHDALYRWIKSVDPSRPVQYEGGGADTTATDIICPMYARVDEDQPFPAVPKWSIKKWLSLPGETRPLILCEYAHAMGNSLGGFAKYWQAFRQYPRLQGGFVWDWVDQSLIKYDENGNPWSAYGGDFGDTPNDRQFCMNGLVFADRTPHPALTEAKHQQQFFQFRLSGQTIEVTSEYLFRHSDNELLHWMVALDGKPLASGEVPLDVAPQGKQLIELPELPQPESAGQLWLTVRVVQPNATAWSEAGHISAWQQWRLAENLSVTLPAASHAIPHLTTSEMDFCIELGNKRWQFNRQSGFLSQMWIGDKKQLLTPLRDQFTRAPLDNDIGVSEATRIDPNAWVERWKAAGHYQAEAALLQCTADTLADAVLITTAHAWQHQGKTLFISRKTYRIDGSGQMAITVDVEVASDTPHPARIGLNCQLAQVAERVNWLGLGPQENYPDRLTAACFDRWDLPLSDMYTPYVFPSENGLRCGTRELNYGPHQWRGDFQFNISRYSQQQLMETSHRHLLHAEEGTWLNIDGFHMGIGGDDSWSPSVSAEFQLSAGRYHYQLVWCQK
Method: as §1
E. coli lac z β-galactosidase: 50 mM sodium phosphate, 1.0 mM MgCl2 (pH 7). Substrate: pNP β-Gal, Km = 60 µM.

[4] = target: T3, Fabrazyme = commercial recombinant human lysosomal α-galactosidase (GH27) (Homo sapiens, UniProt P06280); test: Ki determination, Fabrazyme (acid α-galactosidase); type: biochemical; details: pH 5.5, substrate 2,4-DNP α-Gal, room temperature
T3 construct: purchased Fabrazyme
T3 sequence (P06280 32-429): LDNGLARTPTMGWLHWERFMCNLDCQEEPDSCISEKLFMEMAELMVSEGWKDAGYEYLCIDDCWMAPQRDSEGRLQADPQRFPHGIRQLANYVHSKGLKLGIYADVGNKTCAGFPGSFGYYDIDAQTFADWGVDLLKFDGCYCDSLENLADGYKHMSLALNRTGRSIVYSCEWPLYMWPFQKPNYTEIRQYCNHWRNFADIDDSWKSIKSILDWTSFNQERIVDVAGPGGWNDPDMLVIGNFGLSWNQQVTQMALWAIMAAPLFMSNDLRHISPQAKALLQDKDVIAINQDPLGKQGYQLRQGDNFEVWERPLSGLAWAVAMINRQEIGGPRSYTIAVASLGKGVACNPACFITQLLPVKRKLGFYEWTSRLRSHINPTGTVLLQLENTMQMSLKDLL
Method: as §1, with “The initial rate was then measured by monitoring the increase in absorbance as a result of the release of 4-nitrophenol at 405 nm for up to five minutes.” left out
Fabrazyme (Acid α-galactosidase): 20 mM sodium citrate, 50 mM sodium phosphate, 1.0 mM tetrasodium EDTA, 0.25% v/v Triton X-100® and 0.25% w/v taurocholic acid buffer (pH 5.5).

[5] = target: α-glucosidase from Saccharomyces cerevisiae (GH13); test: Ki determination, S. cerevisiae α-glucosidase; type: biochemical; details: pH 7.0, substrate pNP α-Glc, room temperature; read-out: Ki S. cer. (GH13) α-Glc
Method: as §1
S. cerevisiae α-Glucosidase: 50 mM sodium phosphate buffer (pH 7.0). Substrate: pNP α-Glc, Km = 0.75 mM.

[6] = pH 7, substrate 2,4-DNP β-Glc, room temperature, read-out: Ki GCase (GH30) β-Glc
[7] = values repeated in running text, read-out: Ki for GCase

SMILES: OC[C@@H]1[C@@H](O)[C@H](O)[C@@H](O)CN1CCCCCCCCCn1cc(COCC(COCc2cn(CCCCCCCCCN3C[C@H](O)[C@@H](O)[C@H](O)[C@H]3CO)nn2)(COCc2cn(CCCCCCCCCN3C[C@H](O)[C@@H](O)[C@H](O)[C@H]3CO)nn2)COCc2cn(CCCCCCCCCN3C[C@H](O)[C@@H](O)[C@H](O)[C@H]3CO)nn2)nn1 [Compound 17]
- Ki (GCase; read-out: Ki GCase inhibition, multivalent iminosugars): 0.055 µM

SMILES: CC[C@@H]1[C@H](O)[C@@H](O)[C@H](O)CN1CCCCCC(=O)OC [Compound 19]
- Ki (GCase; read-out: Ki GCase): 57 µM

SMILES: CC[C@@H]1[C@H](O)[C@@H](O)[C@H](O)CN1CCCCCC(=O)NCCc1c[nH]cn1 [Compound 20]
- Ki (GCase; read-out: Ki GCase): 4.1 µM

SMILES: N#CCCCCCOc1ccc(C(=O)OCCCCCCN2C[C@H](O)[C@@H](O)[C@H](O)[C@H]2CO)cc1 [Compound 45, N-(6-((4-((5-Cyanopentyl)oxy)benzoyl)oxy)hexyl)-1,5-dideoxy-1,5-imino-D-glucitol]
- Ki [1, 6]: 0.28 µM
- Ki [2]: 1.31 µM
- Ki [3]: > 1000 µM
- Ki [4]: > 1000 µM
- Ki [5]: 23.7 µM

SMILES: N#CCCCCCOc1ccc(C(=O)OCCCCCCN2C[C@@H](O)[C@H](O)[C@@H](O)C2)cc1 [Compound 46, N-(6-((4-((5-Cyanopentyl)oxy)benzoyl)oxy)hexyl)-1,5-dideoxy-1,5-imino-D-xylitol]
- Ki [1, 6]: 0.62 µM
- Ki [2]: 12.1 µM
- Ki [3]: > 1000 µM
- Ki [4]: > 1000 µM
- Ki [5]: > 1000 µM

SMILES: [N-]=[N+]=NCCOCCOc1ccc(C(=O)OCCCCCCN2C[C@H](O)[C@@H](O)[C@H](O)[C@H]2CO)cc1 [Compound 47, N-(6-((4-(2-(2-Azidoethoxy)ethoxy)benzoyl)oxy)hexyl)-1,5-dideoxy-1,5-imino-D-glucitol]
- Ki [1, 6]: 0.09 µM
- Ki [2]: 1.7 µM
- Ki [3]: > 1000 µM
- Ki [4]: > 1000 µM
- Ki [5]: 221 µM

SMILES: [N-]=[N+]=NCCOCCOc1ccc(C(=O)OCCCCCCN2C[C@@H](O)[C@H](O)[C@@H](O)C2)cc1 [Compound 48, N-(6-((4-(2-(2-Azidoethoxy)ethoxy)benzoyl)oxy)hexyl)-1,5-dideoxy-1,5-imino-D-xylitol]
- Ki [1, 6]: 1.4 µM
- Ki [2]: 32.6 µM
- Ki [3]: > 1000 µM
- Ki [4]: > 1000 µM
- Ki [5]: > 1000 µM

SMILES: O=C(OCCCCCCN1C[C@H](O)[C@@H](O)[C@H](O)[C@H]1CO)c1ccc(OCCOCCOC(C(F)(F)F)(C(F)(F)F)C(F)(F)F)cc1 [Compound 49, N-(6-((4-(2-(2-(Nonafluoro-tert-butyloxy)ethoxy)ethoxy)benzoyl)oxy)hexyl)-1,5-dideoxy-1,5-imino-D-glucitol]
- Ki [1, 6]: 0.35 µM
- Ki [2]: 3.6 µM
- Ki [3]: > 1000 µM
- Ki [4]: > 1000 µM
- Ki [5]: > 1000 µM

SMILES: O=C(OCCCCCCN1C[C@@H](O)[C@H](O)[C@@H](O)C1)c1ccc(OCCOCCOC(C(F)(F)F)(C(F)(F)F)C(F)(F)F)cc1 [Compound 50, N-(6-((4-(2-(2-(Nonafluoro-tert-butyloxy)ethoxy)ethoxy)benzoyl)oxy)hexyl)-1,5-dideoxy-1,5-imino-D-xylitol]
- Ki [1, 6]: 0.4 µM
- Ki [2]: 23.7 µM
- Ki [3]: 255 µM
- Ki [4]: > 1000 µM
- Ki [5]: > 1000 µM

SMILES: C#CCOc1ccc(C(=O)OCCCCCCN2C[C@H](O)[C@@H](O)[C@H](O)[C@H]2CO)cc1 [Compound 51, N-(6-((4-(Propargyloxy)benzoyl)oxy)hexyl)-1,5-dideoxy-1,5-imino-D-glucitol]
- Ki [1, 6]: 0.37 µM
- Ki [2]: 0.0022 µM
- Ki [3]: > 1000 µM
- Ki [4]: > 1000 µM
- Ki [5]: 4.9 µM

SMILES: C#CCOc1ccc(C(=O)OCCCCCCN2C[C@@H](O)[C@H](O)[C@@H](O)C2)cc1 [Compound 52, N-(6-((4-(Propargyloxy)benzoyl)oxy)hexyl)-1,5-dideoxy-1,5-imino-D-xylitol]
- Ki [1, 6]: 0.74 µM
- Ki [3]: > 1000 µM
- Ki [4]: > 1000 µM
- Ki [5]: 267 µM

SMILES: O=C(NCCc1ccc(C(=O)OCCCCCCN2C[C@H](O)[C@@H](O)[C@H](O)[C@H]2CO)cc1)OCc1ccccc1 [Compound 53, N-(6-((4-(2-(((Benzyloxy)carbonyl)amino)ethyl)benzoyl)oxy)hexyl)-1,5-dideoxy-1,5-imino-D-glucitol]
- Ki [1, 7]: 0.022 µM
- Ki [2]: 0.06 µM
- Ki [3]: 424 µM
- Ki [4]: > 1000 µM
- Ki [5]: 8.1 µM

SMILES: O=C(NCCc1ccc(C(=O)OCCCCCCN2C[C@@H](O)[C@H](O)[C@@H](O)C2)cc1)OCc1ccccc1 [Compound 54, N-(6-((4-(2-(((Benzyloxy)carbonyl)amino)ethyl)benzoyl)oxy)hexyl)-1,5-dideoxy-1,5-imino-D-xylitol]
- Ki [1, 6]: 0.31 µM
- Ki [2]: 0.58 µM
- Ki [3]: > 1000 µM
- Ki [4]: > 1000 µM
- Ki [5]: > 1000 µM

SMILES: CN(C)c1cccc2c(S(=O)(=O)NCCc3ccc(C(=O)OCCCCCCN4C[C@H](O)[C@@H](O)[C@H](O)[C@H]4CO)cc3)cccc12 [Compound 55, N-(6-((4-(2-(Dansylamino)ethyl)benzoyl)oxy)hexyl)-1,5-dideoxy-1,5-imino-D-glucitol]
- Ki [1, 7]: 0.018 µM
- Ki [2]: 0.06 µM
- Ki [3]: 89 µM
- Ki [4]: > 1000 µM
- Ki [5]: 8.7 µM

SMILES: CN(C)c1cccc2c(S(=O)(=O)NCCc3ccc(C(=O)OCCCCCCN4C[C@@H](O)[C@H](O)[C@@H](O)C4)cc3)cccc12 [Compound 56, N-(6-((4-(2-(Dansylamino)ethyl)benzoyl)oxy)hexyl)-1,5-dideoxy-1,5-imino-D-xylitol]
- Ki [2]: 0.76 µM
- Ki [3]: 198 µM
- Ki [4]: > 1000 µM
- Ki [5]: > 1000 µM

Reference: article PMC7594070, “N-Alkylated Iminosugar Based Ligands: Synthesis and Inhibition of Human Lysosomal β-Glucocerebrosidase” (Molecules, 2020)
